Here are results for 25 compounds from patent publication US10654828B2 (NOVARTIS AG, priority 2017, dated 2020).

For one assay, the system named is AKT. The assay is described as follows: AKT activation: Phospho-AKT (Ser473) antibody staining in reporter cells. Format: cell-based. Particulars: U2OS GFP-FoxO3a H212R cells, serum starved overnight, compound 30 minutes, total cellular intensity of Phospho-AKT (Ser473) staining, DMSO control 0%. On the procedure: (§1) Phosphorylation of AKT on S473 and FoxO3a nuclear to cytoplasmic translocation were used as readouts of PI3K/Akt/mTOR pathway activation downstream of growth factor signaling.
(§2) Reporter cell line. U2OS GFP-FoxO3a H212R reporter cell line was established by transducing U2OS cells with the retroviral plasmid pLEGFP-C1 containing FoxO3a H212R transgene and selecting for G418 resistant clones.
(§3) Reporter assay. U2OS GFP-FoxO3a H212R cells were plated in 384-well plates at 4000 cells per well in 30 microliters of McCoy's 5 A medium containing 10% FBS. On day 1 the cells were washed with serum free medium and serum starved overnight. On day 2 the cells were treated with different doses of the compounds for 30 minutes, fixed with 4% Paraformaldehyde for 1 hour and stained with Phospho-AKT (Ser473) antibody (Cell Signaling Technology, catalog #4060) overnight at 4 degrees Celsius. After nuclei staining with Hoechst 33342 (Life Technologies, catalog # H3570) the plates were imaged with InCell 2000 (GE Healthcare Bio-Sciences). FoxO3a inhibition activity is calculated as the ratio of nuclear to cytosolic GFP intensity in percent. AKT activation is measured as the total cellular intensity of Phospho-AKT antibody staining in percent. DMSO control is set as 0% activity.

A further assay relates to FoxO3a. The assay is described as follows: FoxO3a inhibition: GFP-FoxO3a nuclear to cytoplasmic translocation reporter assay. The following applies: U2OS GFP-FoxO3a H212R cells, serum starved overnight, compound 30 minutes, ratio of nuclear to cytosolic GFP intensity, DMSO control 0%, read-out: FoxO AC50. The class given is cell-based. On the procedure:
as §1, §2, §3
For orientation: A reporter such as luciferase makes a cellular process visible.

Read-outs that look alike come from different tables or passages of the source.

With `Cc1cc(C(N)=O)nn1-c1ccc2c(ccn2Cc2ccc(C3CCN(C)CC3(C)C)cc2)c1` (single isomer, unassigned) [Example 16-3, 5-methyl-1-(1-(4-(1,3,3-trimethylpiperidin-4-yl)benzyl)-1H-indol-5-yl)-1H-pyrazole-3-carboxamide], the half-maximal activity concentration (AC50) (in general, the concentration at which the activity in the assay is half-maximal) in the assay on AKT was 3190 nM; with FoxO3a, 1040 nM.

In the case of `Cc1cc(C(N)=O)nn1-c1ccc2c(ccn2Cc2ccc(C3=CCN(C)CC3C)cc2)c1` (single isomer, unassigned) [Example 17-2, 1-(1-(4-(1,3-dimethyl-1,2,3,6-tetrahydropyridin-4-yl)benzyl)-1H-indol-5-yl)-5-methyl-1H-pyrazole-3-carboxamide], the AC50 in the assay with AKT came out at 123 nM; in the assay on FoxO3a it was 47 nM.

On to `Cc1cc(C(N)=O)nn1-c1ccc2c(ccn2Cc2ccc(C3=CCN(C)CC3C)cc2)c1` (single isomer, unassigned) [Example 17-3, 1-(1-(4-(1,3-dimethyl-1,2,3,6-tetrahydropyridin-4-yl)benzyl)-1H-indol-5-yl)-5-methyl-1H-pyrazole-3-carboxamide], for which the values for the AC50 in the assay on AKT and in the assay with FoxO3a were 840 nM and 251 nM, respectively.

On to `Cc1cc(C(N)=O)nn1-c1ccc2c(ccn2Cc2ccc(C3CCCN(C)CC3)cc2)c1` (single isomer, unassigned) [Example 29-1, 5-methyl-1-(1-(4-(1-methylazepan-4-yl)benzyl)-1H-indol-5-yl)-1H-pyrazole-3-carboxamide], for which the AC50 with AKT (Homo sapiens, U2OS, 0.5 h) was 1690 nM; in the assay with FoxO3a (Homo sapiens, U2OS, 0.5 h), 483 nM.

With `Cc1cc(C(N)=O)nn1-c1ccc2c(ccn2Cc2ccc(C3CCCN(C)CC3)cc2)c1` (single isomer, unassigned) [Example 29-2, 5-methyl-1-(1-(4-(1-methylazepan-4-yl)benzyl)-1H-indol-5-yl)-1H-pyrazole-3-carboxamide], the AC50 in the assay on AKT amounted to 2100 nM; in the assay with FoxO3a, 818 nM.

On to `Cc1cc(C(N)=O)nn1-c1ccc2c(ccn2Cc2ccc(NC3CCN(C)C3)cc2)c1` (single isomer, unassigned) [Example 37-1, 5-Methyl-1-(1-(4-((1-methylpyrrolidin-3-yl)amino)benzyl)-1H-indol-5-yl)-1H-pyrazole-3-carboxamide], for which the AC50 stood at 4790 nM with AKT (Homo sapiens, U2OS, 0.5 h) and 724 nM in the assay with FoxO3a (Homo sapiens, U2OS, 0.5 h).

Turning to `Cc1cc(C(N)=O)nn1-c1ccc2c(ccn2Cc2ccc(NC3CCN(C)C3)cc2)c1` (single isomer, unassigned) [Example 37-2, 5-methyl-1-(1-(4-((1-methylpyrrolidin-3-yl)amino)benzyl)-1H-indol-5-yl)-1H-pyrazole-3-carboxamide], the results for the AC50 in the assay on AKT and in the assay with FoxO3a were 4080 nM and 928 nM, respectively.

Turning to `Cc1cc(C(N)=O)nn1-c1ccc2c(ccn2Cc2ccc(C3=CCN(C)CC3)cc2)c1` [Example 1-1, 5-methyl-1-(1-(4-(1-methyl-1,2,3,6-tetrahydropyridin-4-yl)benzyl)-1H-indol-5-yl)-1H-pyrazole-3-carboxamide], the AC50 in the assay with AKT (Homo sapiens, U2OS, 0.5 h) worked out at 138 nM; in the assay with FoxO3a (Homo sapiens, U2OS, 0.5 h), 53 nM.

With `Cc1cc(C(N)=O)nn1-c1ccc2c(ccn2Cc2ccc(C3=CCOCC3)cc2)c1` [Example 1-3, 1-(1-(4-(3,6-dihydro-2H-pyran-4-yl)benzyl)-1H-indol-5-yl)-5-methyl-1H-pyrazole-3-carboxamide], the half-maximal activity concentration (AC50) was greater than 10000 nM with AKT (Homo sapiens, U2OS, 0.5 h) and 201 nM with FoxO3a (Homo sapiens, U2OS, 0.5 h).

With `CC(=O)N1CC=C(c2ccc(Cn3ccc4cc(-n5nc(C(N)=O)cc5C)ccc43)cc2)CC1` [Example 1-4, 1-(1-(4-(1-acetyl-1,2,3,6-tetrahydropyridin-4-yl)benzyl)-1H-indol-5-yl)-5-methyl-1H-pyrazole-3-carboxamide], the AC50 worked out at 252 nM in the assay on AKT (Homo sapiens, U2OS, 0.5 h) and 121 nM with FoxO3a (Homo sapiens, U2OS, 0.5 h).

For `Cc1cc(C(N)=O)nn1-c1ccc2c(ccn2Cc2ccc(-c3ccc(C#N)cc3)cc2)c1` [Example 1-5, 1-(1-((4′-cyano-[1,1′-biphenyl]-4-yl)methyl)-1H-indol-5-yl)-5-methyl-1H-pyrazole-3-carboxamide], the AC50 in the assay on AKT (Homo sapiens, U2OS, 0.5 h) was greater than 10000 nM; in the assay on FoxO3a (Homo sapiens, U2OS, 0.5 h), 285 nM.

Consider `Cc1cc(C(N)=O)nn1-c1ccc2c(ccn2Cc2ccc(-c3ccc(S(C)(=O)=O)cc3)cc2)c1` [Example 1-6, 5-methyl-1-(1-((4′-(methylsulfonyl)-[1,1′-biphenyl]-4-yl)methyl)-1H-indol-5-yl)-1H-pyrazole-3-carboxamide], for which the AC50 in the assay on AKT (Homo sapiens, U2OS, 0.5 h) is 250 nM; in the assay on FoxO3a (Homo sapiens, U2OS, 0.5 h) it was 101 nM.

With `Cc1cc(C(N)=O)nn1-c1ccc2c(ccn2Cc2ccc(-c3ccc4nccn4c3)cc2)c1` [Example 1-7, 1-(1-(4-(imidazo[1,2-a]pyridin-6-yl)benzyl)-1H-indol-5-yl)-5-methyl-1H-pyrazole-3-carboxamide], the half-maximal activity concentration (AC50) with AKT (Homo sapiens, U2OS, 0.5 h) is 680 nM; with FoxO3a (Homo sapiens, U2OS, 0.5 h), 194 nM.

For `Cc1cc(C(N)=O)nn1-c1ccc2c(ccn2Cc2ccc(C3=CCCN(C)C3)cc2)c1` [Example 1-8, 5-methyl-1-(1-(4-(1-methyl-1,2,5,6-tetrahydropyridin-3-yl)benzyl)-1H-indol-5-yl)-1H-pyrazole-3-carboxamide], the AC50 in the assay on AKT (Homo sapiens, U2OS, 0.5 h) is greater than 10000 nM; in the assay with FoxO3a (Homo sapiens, U2OS, 0.5 h), 517 nM.

As for `Cc1cc(C(N)=O)nn1-c1ccc2c(ccn2Cc2ccc(-c3cnc4c(c3)OCCN4C)cc2)c1` [Example 1-9, 5-methyl-1-(1-(4-(4-methyl-3,4-dihydro-2H-pyrido[3,2-b][1,4]oxazin-7-yl)benzyl)-1H-indol-5-yl)-1H-pyrazole-3-carboxamide], the AC50 in the assay on AKT (Homo sapiens, U2OS, 0.5 h) stood at 318 nM; in the assay on FoxO3a (Homo sapiens, U2OS, 0.5 h), 109 nM.

With `Cc1cc(C(N)=O)nn1-c1ccc2c(ccn2Cc2ccc(-c3ccc4cn(C)nc4c3)cc2)c1` [Example 1-10, 5-methyl-1-(1-(4-(2-methyl-2H-indazol-6-yl)benzyl)-1H-indol-5-yl)-1H-pyrazole-3-carboxamide], the AC50 with AKT (Homo sapiens, U2OS, 0.5 h) was determined as 234 nM; with FoxO3a (Homo sapiens, U2OS, 0.5 h), 72 nM.

For `Cc1cc(C(N)=O)nn1-c1ccc2c(ccn2Cc2ccc(-c3ccc(S(=O)(=O)N4CCN(C)CC4)cc3)cc2)c1` [Example 1-11, 5-methyl-1-(1-((4′-((4-methylpiperazin-1-yl)sulfonyl)-[1,1′-biphenyl]-4-yl)methyl)-1H-indol-5-yl)-1H-pyrazole-3-carboxamide], the AC50 was determined as 388 nM with AKT (Homo sapiens, U2OS, 0.5 h) and 69 nM with FoxO3a (Homo sapiens, U2OS, 0.5 h).

Turning to `Cc1cc(C(N)=O)nn1-c1ccc2c(ccn2Cc2ccc(-c3cccc(C(=O)N4CCN(C)CC4)c3)cc2)c1` [Example 1-12, 5-methyl-1-(1-((3′-(4-methylpiperazine-1-carbonyl)-[1,1′-biphenyl]-4-yl)methyl)-1H-indol-5-yl)-1H-pyrazole-3-carboxamide], the AC50 in the assay with AKT (Homo sapiens, U2OS, 0.5 h) was found to be 346 nM; in the assay on FoxO3a (Homo sapiens, U2OS, 0.5 h), 124 nM.

Turning to `Cc1cc(C(N)=O)nn1-c1ccc2c(ccn2Cc2ccc(-c3ccc(S(=O)(=O)N(C)C)cc3)cc2)c1` [Example 1-13, 1-(1-((4′-(N,N-dimethylsulfamoyl)-[1,1′-biphenyl]-4-yl)methyl)-1H-indol-5-yl)-5-methyl-1H-pyrazole-3-carboxamide], the AC50 in the assay on AKT (Homo sapiens, U2OS, 0.5 h) is 230 nM; in the assay on FoxO3a (Homo sapiens, U2OS, 0.5 h) it was 84 nM.

For the compound `Cc1cc(C(N)=O)nn1-c1ccc2c(ccn2Cc2ccc(-c3ccc4cn[nH]c4c3)cc2)c1` [Example 1-14, 1-(1-(4-(1H-indazol-6-yl)benzyl)-1H-indol-5-yl)-5-methyl-1H-pyrazole-3-carboxamide], the half-maximal activity concentration (AC50) in the assay on AKT (Homo sapiens, U2OS, 0.5 h) was determined as 1050 nM; in the assay with FoxO3a (Homo sapiens, U2OS, 0.5 h), 284 nM.

Regarding `Cc1cc(C(N)=O)nn1-c1ccc2c(ccn2Cc2ccc(-c3ccc(O)c(F)c3)cc2)c1` [Example 1-15, 1-(1-((3′-fluoro-4′-hydroxy-[1,1′-biphenyl]-4-yl)methyl)-1H-indol-5-yl)-5-methyl-1H-pyrazole-3-carboxamide], the half-maximal activity concentration (AC50) in the assay on AKT (Homo sapiens, U2OS, 0.5 h) is 172 nM; in the assay on FoxO3a (Homo sapiens, U2OS, 0.5 h) it was 56 nM.

Regarding `Cc1cc(C(N)=O)nn1-c1ccc2c(ccn2Cc2ccc(-c3cnc4[nH]ccc4c3)cc2)c1` [Example 1-16, 1-(1-(4-(1H-pyrrolo[2,3-b]pyridin-5-yl)benzyl)-1H-indol-5-yl)-5-methyl-1H-pyrazole-3-carboxamide], the AC50 in the assay on AKT (Homo sapiens, U2OS, 0.5 h) is 451 nM; with FoxO3a (Homo sapiens, U2OS, 0.5 h) it was 147 nM.

Turning to `Cc1cc(C(N)=O)nn1-c1ccc2c(ccn2Cc2ccc(-c3ccc4[nH]ncc4c3)cc2)c1` [Example 1-17, 1-(1-(4-(1H-indazol-5-yl)benzyl)-1H-indol-5-yl)-5-methyl-1H-pyrazole-3-carboxamide], the AC50 in the assay with AKT (Homo sapiens, U2OS, 0.5 h) was 199 nM; with FoxO3a (Homo sapiens, U2OS, 0.5 h), 88 nM.

As for `Cc1cc(C(N)=O)nn1-c1ccc2c(ccn2Cc2ccc(-c3ccc4cnccc4c3)cc2)c1` [Example 1-18, 1-(1-(4-(isoquinolin-6-yl)benzyl)-1H-indol-5-yl)-5-methyl-1H-pyrazole-3-carboxamide], the AC50 with AKT (Homo sapiens, U2OS, 0.5 h) is 352 nM; in the assay on FoxO3a (Homo sapiens, U2OS, 0.5 h) it was 95 nM.

With `Cc1cc(C(N)=O)nn1-c1ccc2c(ccn2Cc2ccc(-c3cnn(C)c3)cc2)c1` [Example 1-19, 5-methyl-1-(1-(4-(1-methyl-1H-pyrazol-4-yl)benzyl)-1H-indol-5-yl)-1H-pyrazole-3-carboxamide], the AC50 in the assay on AKT (Homo sapiens, U2OS, 0.5 h) came out at 500 nM; in the assay on FoxO3a (Homo sapiens, U2OS, 0.5 h), 140 nM.
